Assay results reported in PubChem BioAssay AID2060487 (Molecular Pharmacology Branch, DTP, NCI, 2025).

Tested on: 997537-175-T-J1-PDC complex spheroid viability
Assay: Anticancer human tumor 997537-175-T-J1-PDC patient-derived colon adenocarcinoma cell line growth inhibition [GQUAD]
Details: for IC50: curve of first compound; for viability, T/C: stronger effect = lower value
Outline: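 Viability of tumor cells grown as complex spheroids with endothelial and stromal cells, exposed to drug combinations. Top concentration at or near clinical Cmax (else 10 microM), diluted in half-log increments.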

[1] = second compound 0.0316 µM, first compound 0.0316 µM
[2] = second compound 0.0316 µM, first compound 0.1 µM
[3] = second compound 0.0316 µM, first compound 0.316 µM
[4] = second compound 0.0316 µM, first compound 1 µM
[5] = second compound 0.0316 µM, first compound 3.16 µM
[6] = second compound 0.0316 µM, first compound 10 µM
[7] = second compound 0.1 µM, first compound 0.0316 µM
[8] = second compound 0.1 µM, first compound 0.1 µM
[9] = second compound 0.1 µM, first compound 0.316 µM
[10] = second compound 0.1 µM, first compound 1 µM
[11] = second compound 0.1 µM, first compound 3.16 µM
[12] = second compound 0.1 µM, first compound 10 µM
[13] = second compound 0.316 µM, first compound 0.0316 µM
[14] = second compound 0.316 µM, first compound 0.1 µM
[15] = second compound 0.316 µM, first compound 0.316 µM
[16] = second compound 0.316 µM, first compound 1 µM
[17] = second compound 0.316 µM, first compound 3.16 µM
[18] = second compound 0.316 µM, first compound 10 µM
[19] = second compound 1 µM, first compound 0.0316 µM
[20] = second compound 1 µM, first compound 0.1 µM
[21] = second compound 1 µM, first compound 0.316 µM
[22] = second compound 1 µM, first compound 1 µM
[23] = second compound 1 µM, first compound 3.16 µM
[24] = second compound 1 µM, first compound 10 µM
[25] = second compound 3.16 µM, first compound 0.0316 µM
[26] = second compound 3.16 µM, first compound 0.1 µM
[27] = second compound 3.16 µM, first compound 0.316 µM
[28] = second compound 3.16 µM, first compound 1 µM
[29] = second compound 3.16 µM, first compound 3.16 µM
[30] = second compound 3.16 µM, first compound 10 µM
[31] = second compound 10 µM, first compound 0.0316 µM
[32] = second compound 10 µM, first compound 0.1 µM
[33] = second compound 10 µM, first compound 0.316 µM
[34] = second compound 10 µM, first compound 1 µM
[35] = second compound 10 µM, first compound 3.16 µM
[36] = second compound 10 µM, first compound 10 µM
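Note: spheroids exposed to the agents for 7 days.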
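Throughout, for viability, T/C: 100% = DMSO vehicle control viability.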

CCCS(=O)(=O)Nc1ccc(F)c(C(=O)c2c[nH]c3ncc(-c4ccc(Cl)cc4)cc23)c1F + Cc1cnc(CNC(=O)c2c(=O)c3ccc(N4CCCN(C)CC4)nc3n3c2sc2ccccc23)cn1
IC50 (second compound 0.0316 µM): 1900 nM
IC50 (second compound 0.1 µM): 1760 nM
IC50 (second compound 0.316 µM): 778 nM
IC50 (second compound 1 µM): 739 nM
IC50 (second compound 3.16 µM): 1890 nM
IC50 (second compound 10 µM): 1460 nM
viability, T/C [1]: 77.7%
viability, T/C [2]: 50.8%
viability, T/C [3]: 67.3%
viability, T/C [4]: 44.8%
viability, T/C [5]: 56.2%
viability, T/C [6]: 22.2%
viability, T/C [7]: 73.8%
viability, T/C [8]: 64.7%
viability, T/C [9]: 76.1%
viability, T/C [10]: 40.8%
viability, T/C [11]: 53.1%
viability, T/C [12]: 21.6%
viability, T/C [13]: 93.5%
viability, T/C [14]: 56.2%
viability, T/C [15]: 60%
viability, T/C [16]: 45.7%
viability, T/C [17]: 55.2%
viability, T/C [18]: 21.8%
viability, T/C [19]: 84.3%
viability, T/C [20]: 62.7%
viability, T/C [21]: 48.4%
viability, T/C [22]: 56.3%
viability, T/C [23]: 48.2%
viability, T/C [24]: 27.7%
viability, T/C [25]: 82.7%
viability, T/C [26]: 58.6%
viability, T/C [27]: 62.2%
viability, T/C [28]: 64.7%
viability, T/C [29]: 42.8%
viability, T/C [30]: 26.1%
viability, T/C [31]: 83.6%
viability, T/C [32]: 74.2%
viability, T/C [33]: 68.8%
viability, T/C [34]: 44%
viability, T/C [35]: 51.5%
viability, T/C [36]: 26.9%

CC(C)n1c(=O)n(C)c2cnc3cc(F)c(-c4ccc(OCCCN5CCCCC5)nc4)cc3c21 + CN(C)c1ccc(Nc2c3ccc(NC(=O)CCN4CCCC4)cc3nc3cc(NC(=O)CCN4CCCC4)ccc23)cc1
IC50 (second compound 0.0316 µM): > 10000 nM
IC50 (second compound 0.1 µM): > 10000 nM
IC50 (second compound 0.316 µM): > 10000 nM
IC50 (second compound 1 µM): > 10000 nM
IC50 (second compound 3.16 µM): > 10000 nM
IC50 (second compound 10 µM): > 10000 nM
viability, T/C [1]: 104%
viability, T/C [2]: 91.2%
viability, T/C [3]: 101%
viability, T/C [4]: 87%
viability, T/C [5]: 83%
viability, T/C [6]: 108%
viability, T/C [7]: 93.8%
viability, T/C [8]: 86%
viability, T/C [9]: 104%
viability, T/C [10]: 64%
viability, T/C [11]: 96.2%
viability, T/C [12]: 98.7%
viability, T/C [13]: 98.4%
viability, T/C [14]: 81.9%
viability, T/C [15]: 95.9%
viability, T/C [16]: 82.7%
viability, T/C [17]: 93.7%
viability, T/C [18]: 95.2%
viability, T/C [19]: 76%
viability, T/C [20]: 89.8%
viability, T/C [21]: 88.9%
viability, T/C [22]: 93.8%
viability, T/C [23]: 92%
viability, T/C [24]: 95%
viability, T/C [25]: 74.3%
viability, T/C [26]: 85.4%
viability, T/C [27]: 91.7%
viability, T/C [28]: 104%
viability, T/C [29]: 106%
viability, T/C [30]: 93.3%
viability, T/C [31]: 86.6%
viability, T/C [32]: 71.7%
viability, T/C [33]: 103%
viability, T/C [34]: 96.7%
viability, T/C [35]: 103%
viability, T/C [36]: 98.4%
